Reference: the supplement of paper PMC8882468

Tests used:
Experiment in all cases: CTG-3D luminescence at 96 h relative to day-0 seeding control (ratio to day 0); higher = more growth / less cytotoxicity; PDxO 3D drug screen (set 2), 96 h, CTG-3D normalised to day-0 seeding control.
HCI-023 = test system: HCI-023 (organoid from a triple-negative breast cancer xenograft)
HCI-001 = test system: HCI-001 (organoid from a triple-negative breast cancer xenograft)
HCI-010 = organoid from a breast cancer xenograft; conditions: 12.5 pM

O=C(c1cc(Cc2n[nH]c(=O)c3ccccc23)ccc1F)N1CCN(C(=O)C2CC2)CC1 [olaparib]
CTG-3D luminescence at 96 h
Conditions | 12.5 pM | 0.00025 µM | 0.005 µM | 0.1 µM | 1 µM | 10 µM | 100 µM | 625 fM
HCI-001, days in culture: 365 | 2.29 | 1.96 | 2.13 | 2.28 | 2.05 | 2.04 | 1.96 | 1.74
HCI-001, days in culture: 397 | 1.71 | 2.02 | 2 | 1.8 | 2.31 | 2.16 | 1.24 | 1.26
HCI-001, days in culture: 401 | 1.69 | 1.42 | 1.54 | 1.68 | 1.23 | 1.73 | 1.26 | 1.62
HCI-023, days in culture: 223 | 1.7 | 2.3 | 1.79 | 1.65 | 1.36 | 1.31 | 0.879 | 1.75
HCI-023, days in culture: 238 | 1.45 | 1.31 | 1.45 | 1.53 | 1.9 | 1.41 | 0.856 | 1.72
HCI-023, days in culture: 252 | 2.12 | 1.81 | 1.55 | 2 | 1.78 | 1.86 | 1.59 | 2.3

HCI-010
Conditions | CTG-3D luminescence at 96 h
days in culture: 79 | 2.04
days in culture: 86 | 2.3
days in culture: 102 | 1.21
days in culture: 164 | 1.72
